Test system: healthy adult examinees
Assay: HRIPT (Human repeated insult patch tests), skin accumulated stimulus
Assay type: in vivo
Set-up: key to skin reactivity (ICDRG criteria): −: negative (no response); ±: doubtful or slight erythema, etc.; +: weak reaction (which is accompanied with no phlyctenule), erythema, papule; ++: severe reaction (which is accompanied with phylctenule), erythema, papule, phlyctenule; +++: strong reaction, bullae reaction
Conditions: for average reactivity: 9 patches, 15 examinees; for Number of examinees who exhibited ±, +, or ++ reactivity 1st: 1st patch; for Number of examinees who exhibited ±, +, or ++ reactivity 2nd: 2nd patch; for Number of examinees who exhibited ±, +, or ++ reactivity 3rd: 3rd patch; for Number of examinees who exhibited ±, +, or ++ reactivity 4th: 4th patch; for Number of examinees who exhibited ±, +, or ++ reactivity 5th: 5th patch; for Number of examinees who exhibited ±, +, or ++ reactivity 6th: 6th patch; for Number of examinees who exhibited ±, +, or ++ reactivity 7th: 7th patch; for Number of examinees who exhibited ±, +, or ++ reactivity 8th: 8th patch; for Number of examinees who exhibited ±, +, or ++ reactivity 9th: 9th patch
Experimental: HRIPT (Human repeated insult patch tests) was conducted in order to identify skin accumulated stimulus of quercetin3-O-[3-O″-(E)-p-coumaroyl][β-D-glucopyranosyl-(1→3)-O-α-L-rhamnopyranosyl-(1→6)-O-β-D-glucopyranoside] and quercetin3-O-[3-O″-(E)-p-coumaroyl][α-L-rhamnopyranosyl-(1→6)-O-β-D-glucopyranoside]and to calculate the concentration range that can be used in skin.
Specifically, 15 healthy adult examinees were randomly selected, and test compositions in which the compounds were respectively comprised in an amount of 0.5 wt. %, 1 wt. %, and 3 wt. % (the compositions for skin, comprising an emulsifying agent, a stabilizer, purified water, etc. in addition to the compounds) were dropped in the amount of 20 μl per chamber (IQ chamber, Epitest Ltd, Finland), and patched on the right site of the upper back of the examinees, and then, after 24 hours, the patch was replaced with a new patch. A total of 9 patches were conducted, three times a week for total 3 weeks, in such manner, the skin reactions before and after patch were examined every time, and the skin reactions until 48 hours after removing the final patch were observed, and the average reactivity was observed.
The skin reaction was determined according to the criteria of International Contact Dermatitis Research Group (ICDRG). In the above table, “New Material 31” refers to quercetin3-O-[3-O″-(E)-p-coumaroyl][β-D-glucopyranosyl-(1→3)-O-α-L-rhamnopyranosyl-(1→6)-O-β-D-glucopyranoside], and “New Material 32” refers to quercetin3-O-[3-O″-(E)-p-coumaroyl][α-L-rhamnopyranosyl-(1→6)-O-β-D-glucopyranoside].

## C[C@@H]1O[C@@H](OC[C@H]2O[C@@H](Oc3c(-c4ccc(O)c(O)c4)oc4cc(O)cc(O)c4c3=O)[C@H](O)[C@@H](OC(=O)/C=C/c3ccc(O)cc3)[C@@H]2O)[C@H](O)[C@H](O[C@@H]2O[C@H](CO)[C@@H](O)[C@H](O)[C@H]2O)[C@H]1O [New Material 31, quercetin3-O-[3-O″-(E)-p-coumaroyl][β-D-glucopyranosyl-(1→3)-O-α-L-rhamnopyranosyl-(1→6)-O-β-D-glucopyranoside]]
0.5 wt.% in test composition
  average reactivity: 0
0.5 wt.%, 1 wt.% and 3 wt.%, 9 patches in 3 weeks
  skin reactivity (ICDRG criteria): −
0.5 wt.%, line 1 of 3 (±)
  Number of examinees who exhibited ±, +, or ++ reactivity 1st: 0 number
  Number of examinees who exhibited ±, +, or ++ reactivity 2nd: 0 number
  Number of examinees who exhibited ±, +, or ++ reactivity 3rd: 0 number
  Number of examinees who exhibited ±, +, or ++ reactivity 4th: 0 number
  Number of examinees who exhibited ±, +, or ++ reactivity 5th: 0 number
  Number of examinees who exhibited ±, +, or ++ reactivity 6th: 0 number
  Number of examinees who exhibited ±, +, or ++ reactivity 7th: 0 number
  Number of examinees who exhibited ±, +, or ++ reactivity 8th: 0 number
  Number of examinees who exhibited ±, +, or ++ reactivity 9th: 0 number
0.5 wt.%, line 2 of 3 (+)
  Number of examinees who exhibited ±, +, or ++ reactivity 1st: 0 number
  Number of examinees who exhibited ±, +, or ++ reactivity 2nd: 0 number
  Number of examinees who exhibited ±, +, or ++ reactivity 3rd: 0 number
  Number of examinees who exhibited ±, +, or ++ reactivity 4th: 0 number
  Number of examinees who exhibited ±, +, or ++ reactivity 5th: 0 number
  Number of examinees who exhibited ±, +, or ++ reactivity 6th: 0 number
  Number of examinees who exhibited ±, +, or ++ reactivity 7th: 0 number
  Number of examinees who exhibited ±, +, or ++ reactivity 8th: 0 number
  Number of examinees who exhibited ±, +, or ++ reactivity 9th: 0 number
0.5 wt.%, line 3 of 3 (++)
  Number of examinees who exhibited ±, +, or ++ reactivity 1st: 0 number
  Number of examinees who exhibited ±, +, or ++ reactivity 2nd: 0 number
  Number of examinees who exhibited ±, +, or ++ reactivity 3rd: 0 number
  Number of examinees who exhibited ±, +, or ++ reactivity 4th: 0 number
  Number of examinees who exhibited ±, +, or ++ reactivity 5th: 0 number
  Number of examinees who exhibited ±, +, or ++ reactivity 6th: 0 number
  Number of examinees who exhibited ±, +, or ++ reactivity 7th: 0 number
  Number of examinees who exhibited ±, +, or ++ reactivity 8th: 0 number
  Number of examinees who exhibited ±, +, or ++ reactivity 9th: 0 number
1 wt.% in test composition
  average reactivity: 0
1 wt.%, line 1 of 3 (±)
  Number of examinees who exhibited ±, +, or ++ reactivity 1st: 0 number
  Number of examinees who exhibited ±, +, or ++ reactivity 2nd: 0 number
  Number of examinees who exhibited ±, +, or ++ reactivity 3rd: 0 number
  Number of examinees who exhibited ±, +, or ++ reactivity 4th: 0 number
  Number of examinees who exhibited ±, +, or ++ reactivity 5th: 0 number
  Number of examinees who exhibited ±, +, or ++ reactivity 6th: 0 number
  Number of examinees who exhibited ±, +, or ++ reactivity 7th: 0 number
  Number of examinees who exhibited ±, +, or ++ reactivity 8th: 0 number
  Number of examinees who exhibited ±, +, or ++ reactivity 9th: 0 number
1 wt.%, line 2 of 3 (+)
  Number of examinees who exhibited ±, +, or ++ reactivity 1st: 0 number
  Number of examinees who exhibited ±, +, or ++ reactivity 2nd: 0 number
  Number of examinees who exhibited ±, +, or ++ reactivity 3rd: 0 number
  Number of examinees who exhibited ±, +, or ++ reactivity 4th: 0 number
  Number of examinees who exhibited ±, +, or ++ reactivity 5th: 0 number
  Number of examinees who exhibited ±, +, or ++ reactivity 6th: 0 number
  Number of examinees who exhibited ±, +, or ++ reactivity 7th: 0 number
  Number of examinees who exhibited ±, +, or ++ reactivity 8th: 0 number
  Number of examinees who exhibited ±, +, or ++ reactivity 9th: 0 number
1 wt.%, line 3 of 3 (++)
  Number of examinees who exhibited ±, +, or ++ reactivity 1st: 0 number
  Number of examinees who exhibited ±, +, or ++ reactivity 2nd: 0 number
  Number of examinees who exhibited ±, +, or ++ reactivity 3rd: 0 number
  Number of examinees who exhibited ±, +, or ++ reactivity 4th: 0 number
  Number of examinees who exhibited ±, +, or ++ reactivity 5th: 0 number
  Number of examinees who exhibited ±, +, or ++ reactivity 6th: 0 number
  Number of examinees who exhibited ±, +, or ++ reactivity 7th: 0 number
  Number of examinees who exhibited ±, +, or ++ reactivity 8th: 0 number
  Number of examinees who exhibited ±, +, or ++ reactivity 9th: 0 number
3 wt.% in test composition
  average reactivity: 0
3 wt.%, line 1 of 3 (±)
  Number of examinees who exhibited ±, +, or ++ reactivity 1st: 0 number
  Number of examinees who exhibited ±, +, or ++ reactivity 2nd: 0 number
  Number of examinees who exhibited ±, +, or ++ reactivity 3rd: 0 number
  Number of examinees who exhibited ±, +, or ++ reactivity 4th: 0 number
  Number of examinees who exhibited ±, +, or ++ reactivity 5th: 0 number
  Number of examinees who exhibited ±, +, or ++ reactivity 6th: 0 number
  Number of examinees who exhibited ±, +, or ++ reactivity 7th: 0 number
  Number of examinees who exhibited ±, +, or ++ reactivity 8th: 0 number
  Number of examinees who exhibited ±, +, or ++ reactivity 9th: 0 number
3 wt.%, line 2 of 3 (+)
  Number of examinees who exhibited ±, +, or ++ reactivity 1st: 0 number
  Number of examinees who exhibited ±, +, or ++ reactivity 2nd: 0 number
  Number of examinees who exhibited ±, +, or ++ reactivity 3rd: 0 number
  Number of examinees who exhibited ±, +, or ++ reactivity 4th: 0 number
  Number of examinees who exhibited ±, +, or ++ reactivity 5th: 0 number
  Number of examinees who exhibited ±, +, or ++ reactivity 6th: 0 number
  Number of examinees who exhibited ±, +, or ++ reactivity 7th: 0 number
  Number of examinees who exhibited ±, +, or ++ reactivity 8th: 0 number
  Number of examinees who exhibited ±, +, or ++ reactivity 9th: 0 number
3 wt.%, line 3 of 3 (++)
  Number of examinees who exhibited ±, +, or ++ reactivity 1st: 0 number
  Number of examinees who exhibited ±, +, or ++ reactivity 2nd: 0 number
  Number of examinees who exhibited ±, +, or ++ reactivity 3rd: 0 number
  Number of examinees who exhibited ±, +, or ++ reactivity 4th: 0 number
  Number of examinees who exhibited ±, +, or ++ reactivity 5th: 0 number
  Number of examinees who exhibited ±, +, or ++ reactivity 6th: 0 number
  Number of examinees who exhibited ±, +, or ++ reactivity 7th: 0 number
  Number of examinees who exhibited ±, +, or ++ reactivity 8th: 0 number
  Number of examinees who exhibited ±, +, or ++ reactivity 9th: 0 number

From patent US11306117B2, “Whitening composition containing novel quercetin-based compound” (AMOREPACIFIC CORPORATION, priority 2017, dated 2022)
